Patent US20240238398A1, “IMMUNOGENIC COMPOSITION” (GRIFFITH UNIVERSITY, priority 2021, published 2024)

Columns and labels:
[1] = system: B. microti; experiment: In vivo assessment of chemically attenuated B. microti pRBCs in BALB/c mice; details: intravenous inoculation
Description: FIG. 1: In vivo assessment of chemically attenuated B. microti pRBCs. A and B. To assess attenuation of B. microti parasitized red blood cells (pRBCs), BALB/c mice (n=5/group) were injected intravenously with 10^6 pRBCs treated with 2 μM, 200 nM or 20 nM of Tafuramycin-A (TF-A). Control mice received 10^6 untreated pRBCs. C and D. The impact of parasite dose on protection induced by a chemically attenuated whole parasite B. microti vaccine. BALB/c mice (n=5/group) were immunized intravenously on days 0, 14 and 28 with 10^4, 10^5 or 10^6 B. microti parasitized red blood cells (pRBCs) that were chemically attenuated with 2 μM of Tafuramycin-A (TF-A). Control mice received 10^6 TF-A treated normal mouse red blood cells (mRBCs). Mice were challenged with 10^6 B. microti pRBCs two weeks after the final immunization. (A and C: Parasitemias were monitored by microscopy post challenge. B and D: Mice were assessed for signs of disease and were scored based on defined criteria listed on a clinical scoresheet. Data are expressed as mean±SEM). […]
Chemical attenuation of B. microti with Tafuramycin-A (TF-A) was conducted as described previously (Good et al., 2013). […] A cell count was performed using a haemocytometer, the immunizing dose calculated, and the blood was resuspended in the required volume of PBS for injection. […]

[2] = system: B. microti; experiment: Assessment of chemically attenuated B. microti pRBCs in SCID mice; assay type: in vivo; details: 10^6 B. microti pRBCs treated with 2 μM TF-A, intravenous, immunodeficient SCID mice
Description: FIG. 5: Assessment of chemically attenuated B. microti pRBCs in BALB/c and SCID mice. Related to FIGS. 1 and 2. BALB/c and SCID mice (n=5/group) were injected intravenously with 10^6 B. microti parasitized red blood cells (pRBCs) that were chemically attenuated with 2 μM of Tafuramycin-A (TF-A). Control mice received pRBCs that were not treated with TF-A. A. Parasitemia was monitored by microscopy post challenge. B. Mice were assessed for signs of disease and were scored based on defined criteria listed on a clinical scoresheet. Data are expressed as mean±SEM.
Chemical attenuation of B. microti with Tafuramycin-A (TF-A) was conducted as described previously (Good et al., 2013). Blood from mice infected with B. microti (as a source of pRBCs) and from naïve mice (as a source of mRBCs) were collected into EDTA tubes. TF-A was diluted to a 20 μM final concentration in RPMI-1640 with glutamine and added to a 25 cm^2 vented tissue culture flask to give a final TF-A concentration of 2 μM, 200 nM or 20 nM as required. One hundred microlitres of blood containing B. microti pRBCs or mRBCs was added into each flask, as required. […] A cell count was performed using a haemocytometer, the immunizing dose calculated, and the blood was resuspended in the required volume of PBS for injection. […]

Question: What does the source list for `COc1cc2cc(C(=O)N3CC(CCl)c4c3cc(O)c3ccoc43)[nH]c2c(OC)c1OC` (stereo not shown) [TF-A, seco-iso-cyclopropylfurano[2,3-e]indoline-TMI]?
Answer: microscopically patent parasitemia and clinical signs of infection ([1]; 10^6 B. microti pRBCs attenuated with 200 nM TF-A): did not develop microscopically patent parasitemia nor clinical signs of infection; microscopically patent parasitemia and clinical signs of infection ([1]; 10^6 B. microti pRBCs attenuated with 2 μM TF-A): did not develop microscopically patent parasitemia nor clinical signs of infection; signs of clinical disease [2]: remained without signs of clinical disease; time microscopically clear of parasites [2]: 70 days
